The source of these data is patent US20130337028A1, “BIOMIMETIC PEPTIDES FOR BONE AUGMENTATION” (NANOVIS, INC., priority 2010, published 2013).

Assay [1] concerns Human fetal osteoblasts (hFOB, CRL-11372, ATCC). Nature of the assay: Cell adhesion testing. The assay is classed as cell-based. As to conditions: 4 h culture, seeded at 3500 cells/cm^2. As to the method:
(§1) Human fetal osteoblasts (hFOB, CRL-11372, ATCC) of population numbers 7-11 were cultured in Dulbecco's Modified Eagle's Medium (DMEM, GIBCO) supplemented with 10% fetal bovine serum (FBS, Hyclone) and 1% penicillin/streptomycin (P/S, Hyclone) under standard cell culture conditions (that is, a humidified, 5% CO2/95% air environment at 37° C.). Osteoblasts were seeded onto the petri-dish at a density of 3500 cells/cm^2 and were cultured under standard cell culture conditions for 4 h with peptide concentration discussed. After the prescribed time period, non-adherent cells were removed by sequential phosphate buffered saline (PBS) washings. The remaining cells were fixed using 10% normal buffered formaldehyde (Fisher Scientific) for 10 min and 0.1% Triton X-100 (Sigma-Aldrich) for 5 min. Adherent cells were counted in five random fields per substrate under a Zeiss Axiovert 200M fluorescence microscope. Experiments were run in triplicate and repeated three separate times for each substrate.

Assay [2] shares this test system. As to the kind of experiment: Osteoblast proliferation testing (osteoblast density). It counts as cell-based. As to conditions: after day 3, seeded at 2500 cells/cm^2, FIG. 2. How it is done:
as §1
For osteoblast proliferation studies, similar to the above procedures, osteoblasts were seeded on petri dish at 2500 cells/cm^2 with peptides and cultured for 1, 3 days. After the prescribed time periods, adherent cells were fixed, stained and counted under the fluorescence microscope as described above. All cellular experiments were run in triplicate and repeated at least three times for each substrate.

Assay [3] concerns osteoblasts. As to the kind of experiment: Cell function tests, overall osteoblast function. It counts as cell-based, human. The following applies: summary of total protein, ALP and calcium tests. How it is done:
(§2) Total intracellular protein content of osteoblasts is extremely important since it is the indication of healthy growth and normal cell response. Thus, the amount of protein produced by cells were measured up to 3 weeks of culture after providing complete media. In order to release the intracellular protein, the adhered cells on the substrates were lysed in DI water using a standard four cycle freeze-thaw method. The resulting lysate solution was then used for analysis. The total protein content were determined by a BCA (bicinchoninic acid) assay kit (Pierce) and the absorbance of the solution were measured using a spectrophotometer at a wavelength of 570 nm. The absorbance was then converted to protein content using an albumin standard curve to determine the amount of intracellular protein.
(§3) The resulting lysate solution obtained by a four cycle freeze-thaw method was used to measure the ALP activity using a colorimetric assay (Teco). The absorbance of the solution was measured using a spectrophotometer at a wavelength of 590 nm. The absorbance was converted to concentration using ALP standard and all the data were normalized with total protein content to account for changes in number of cells present on surface.
The calcium content was measured up to 3 weeks in culture using a colorimetric assay (Teco) (see FIG. 4). […]

In assay [4] the test system is critical sized bone defect. As to the kind of experiment: Critical sized bone defect model, proximal tibia and distal femur. The assay is classed as in vivo, Sinclair minipigs. As to conditions: with nPLGA and HRN based scaffolds, 4 and 8 weeks, FIG. 6. As to the method: A critical sized bone defect model was used in the proximal tibia and distal femur of 12 Sinclair minipigs (Sinclair Research, MO). Time points to be evaluated are 4 weeks and 8 weeks. Four surgical defects (2 tibia and 2 femur) were created on day 0 in all pigs in one limb and on day 28 in all pigs in the opposite limb. Treatments were applied according to predetermined treatment allocations. MRI evaluations of defects were performed at 4 weeks (all limbs) and 8 weeks (initial defects created on day 0). Following euthanasia, defects were evaluated using microCT and histology to measure bone volume fraction within the defects and with mechanical testing to evaluate compressive stiffness and integration with surrounding bone.
Minipigs were given pre-operative analgesic and antimicrobial drugs immediately prior to anesthesia. Pigs were anesthetized in the Clinical Discovery Laboratory (CDL) using standard swine protocols. One stifle region was aseptically prepared and draped routinely for surgery of the proximal tibia and distal femur. Defects were created in epiphyseal/metaphyseal cancellous bone using an 8 mm drill to a depth of 20 mm. The procedure was repeated in the opposite hind limb at 4 weeks. (Confirmation of the critical defect size in minipigs is to be determined.)
Minipigs were housed in the animal holding facility room 1094 and monitored post-operatively. […]

Assay [5] concerns osteoblasts. As to the kind of experiment: Total intracellular protein content of osteoblasts (BCA assay). The assay is classed as cell-based, human. The following applies: after 7 and 14 days, FIG. 5. How it is done: as §2
In assay [6] the test system is osteoblasts. Nature of the assay: Alkaline phosphatase activity of osteoblasts (colorimetric assay). It counts as cell-based, human. As to conditions: up to 3 weeks, normalized with total protein content, FIG. 3. How it is done:
as §3

In assay [7] the test system is osteoblasts. Nature of the assay: Calcium content / calcium deposition by osteoblasts (colorimetric assay). The assay is classed as cell-based, human. The following applies: after 21 days, normalized with total protein content. As to the method: The calcium content was measured up to 3 weeks in culture using a colorimetric assay (Teco) (see FIG. 4). After all the lysate was aspirated, the surfaces were soaked overnight in 6 N HCl solution to dissolve the deposited calcium. The calcium solution was then reacted with assay reagents and the absorbance of the solution was measured photometrically at 570 nm. The absorbance was then converted to concentration using calcium standards and all the data were normalized with total protein content to account for changes in the number of cells present on surface.

As for KRSR (Ac-KRSR-NH2) [reference compound], the “osteoblast adhesion to substrates” value in assay [1] is listed as “proved to be crucial for maximal osteoblast adhesion to substrates”. For the same substance, in assay [2], the “osteoblast density / attachment on peptide coated surfaces” value (shortened to “osteoblast density / attachment”) is on record as “increased osteoblast attachment compared to other peptides studied”. In the assay on osteoblasts [3], the “osteoblast function (overall)” value is recorded as “showed increased osteoblast function”. Also, the “new bone growth (histology)” value in assay [4] is reported as “showed new bone growth”.
Regarding KRSRSNVILKKYRN (Ac-KRSRSNVILKKYRN-NH2), the “osteoblast density / attachment” value in assay [2] was “increased osteoblast attachment compared to other peptides studied”. Besides, the “total proteins synthesized by osteoblasts” value with osteoblasts [5] is “showed the highest value compared to other peptides and the control”. For the same substance, the alkaline phosphatase activity result in the assay with osteoblasts [6] was “superiority”. Also, the calcium deposition result with osteoblasts [7] is recorded as “showed highest value compared to other materials studied”. Besides, the “osteoblast function (overall)” value in the assay on osteoblasts [3] is given as “showed increased osteoblast function”. The “new bone growth (histology)” value in assay [4] is “showed new bone growth”.
SNVILKKYRN: the “osteoblast density / attachment” value in assay [2] was “increased osteoblast attachment compared to other peptides studied”.
